How the values were obtained:
[1] = Induction of GnRH release in ovariectomized goat assessed as induction of multiple-unit activity volley measured as duration of effect at 200 nmol, iv as single dose; format: functional, Capra hircus
[2] = Agonist activity at cattle NK3R; design: species or system Bos taurus
[3] = target: T1, Neprilysin (Homo sapiens, UniProt P08473); assay: Drug metabolism assessed as NEP 24.11 (unknown origin)-mediated H-Leu-Met-NH2 up to 24 hrs by HPLC analysis; format: ADME
[4] = Metabolic stability in goat serum up to 24 hrs by HPLC analysis; format: ADME, Capra hircus
[5] = tested on: Serum; assay: Metabolic stability in rat serum up to 24 hrs by HPLC analysis; format: ADME, cell-free
[6] = Metabolic stability in pig hypothalamic extract by HPLC analysis; format: ADME, Sus scrofa, Hypothalamus
[7] = Metabolic stability in pig serum up to 24 hrs by HPLC analysis; format: ADME, Sus scrofa
[8] = target: NEP 24.11 (neprilysin) (Homo sapiens, UniProt P08473); assay: Drug metabolism assessed as NEP 24.11 (unknown origin)-mediated degradation up to 24 hrs by HPLC analysis; format: ADME; conditions: NEP 24.11 (neprilysin) enzyme, read-out: Drug metabolism
[9] = tested on: Serum; assay: Metabolic stability in cattle serum up to 24 hrs by HPLC analysis; format: ADME, Bos taurus
[10] = target: T1, Neprilysin; assay: Drug metabolism assessed as NEP 24.11 (unknown origin)-mediated Succinyl-Asp-Phe-MePhe-Gly-OH up to 24 hrs by HPLC analysis; format: ADME
[11] = Agonist activity at goat NK3R; design: species or system Capra hircus

T1 sequence (P08473 whole entry): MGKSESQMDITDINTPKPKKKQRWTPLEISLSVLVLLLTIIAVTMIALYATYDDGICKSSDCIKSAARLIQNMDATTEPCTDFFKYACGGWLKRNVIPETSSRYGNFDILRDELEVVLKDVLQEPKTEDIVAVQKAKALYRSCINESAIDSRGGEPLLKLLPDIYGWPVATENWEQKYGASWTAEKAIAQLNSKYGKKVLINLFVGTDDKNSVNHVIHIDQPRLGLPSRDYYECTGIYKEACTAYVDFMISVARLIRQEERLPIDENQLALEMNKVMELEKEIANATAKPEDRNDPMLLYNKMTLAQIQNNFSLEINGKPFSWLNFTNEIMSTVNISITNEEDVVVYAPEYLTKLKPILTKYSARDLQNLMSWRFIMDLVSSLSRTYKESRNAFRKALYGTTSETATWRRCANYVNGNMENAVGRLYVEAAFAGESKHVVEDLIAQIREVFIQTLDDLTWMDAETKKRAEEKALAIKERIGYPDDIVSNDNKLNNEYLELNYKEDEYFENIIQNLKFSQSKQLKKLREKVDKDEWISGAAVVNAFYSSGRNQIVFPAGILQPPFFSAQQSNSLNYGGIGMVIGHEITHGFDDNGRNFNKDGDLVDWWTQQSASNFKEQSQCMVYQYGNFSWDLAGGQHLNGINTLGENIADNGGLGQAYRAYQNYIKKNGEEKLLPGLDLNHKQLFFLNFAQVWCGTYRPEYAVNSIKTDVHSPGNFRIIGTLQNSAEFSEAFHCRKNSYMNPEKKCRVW
NEP 24.11 (neprilysin), sequence (P08473 whole entry): as above

EC50 [2]: 340 nM | Drug metabolism [3]: metabolite_detected | Stability [4]: Stable | Stability [5]: Stable | Stability [6]: Stable | Stability [7]: Stable | metabolised at 24 h [8]: > 80% | Stability [9]: Stable | Drug metabolism [10]: metabolite_detected | EC50 [11]: 12 nM
SMILES: CSCC[C@H](NC(=O)[C@H](CC(C)C)NC(=O)CNC(=O)[C@H](Cc1ccccc1)N(C)C(=O)[C@H](Cc1ccccc1)NC(=O)[C@H](CC(=O)O)NC(=O)CCC(=O)O)C(N)=O [SENKTIDE]
Time [1]: 60.6 min

Source: ChEMBL document CHEMBL3352625, “Development of novel neurokinin 3 receptor (NK3R) selective agonists with resistance to proteolytic degradation” (J Med Chem, 2014)
